The source of these data is US20070135499A1 (Aerie Pharmaceuticals, Inc., priority 2005, published 2007).

“Also recorded” adds a separate entry of the source. Some results are limits rather than exact numbers.

Assay [1] concerns the target Beta 1 Adrenergic receptor (B1 wt). The assay is described as follows: Transfluor assay, ISO-induced arrestin-GFP translocation to Beta 1 Adrenergic receptor. The format is cell-based. The note with it: U2OS cells.
The target in a further assay is GRK-6 (Homo sapiens, UniProt P43250). The assay is described as follows: luciferase-based biochemical kinase inhibition assay, GRK-6. The note with it: same luciferase assay; read-out: GRK-6 inhibition, Ki class. The protocol: (§1) The inhibition of G-protein-coupled receptor kinases including hGRK-2 was determined for the hydrazide compounds using a biochemical assay. The inhibition of GRK-3, GRK-5 and GRK-6 was also determined using the same assay for some of the hydrazide derivatives.
(§2) The protein kinase inhibition was determined using a biochemical assay utilizing the light emission of a luciferase reaction. The luciferase-based assay operates on the following reaction principles: [drawing 10]
(§3) An inhibitor of GRK-2 will increase in the amount of ATP in solution, as shown. Thus, an inhibitor of GRK-2 will drive the luciferase reaction to the right, resulting in more light emitted. The amount of light emitted is proportional to the inhibition resulting from the GRK-2 inhibitor. The luciferase-based assay was also used to test some of the hydrazides for the inhibition properties towards other kinases.

For assay [2], the target named is Beta 2 Adrenergic Receptor (B2 wt). Briefly: Transfluor assay, isoproterenol-induced arrestin-GFP translocation to Beta 2 Adrenergic Receptor. It is filed as cell-based. To be noted: U2OS cells.
In the next assay the target is T1, hGRK-2 (Homo sapiens, UniProt P25098).
T1 sequence (P25098 1-689): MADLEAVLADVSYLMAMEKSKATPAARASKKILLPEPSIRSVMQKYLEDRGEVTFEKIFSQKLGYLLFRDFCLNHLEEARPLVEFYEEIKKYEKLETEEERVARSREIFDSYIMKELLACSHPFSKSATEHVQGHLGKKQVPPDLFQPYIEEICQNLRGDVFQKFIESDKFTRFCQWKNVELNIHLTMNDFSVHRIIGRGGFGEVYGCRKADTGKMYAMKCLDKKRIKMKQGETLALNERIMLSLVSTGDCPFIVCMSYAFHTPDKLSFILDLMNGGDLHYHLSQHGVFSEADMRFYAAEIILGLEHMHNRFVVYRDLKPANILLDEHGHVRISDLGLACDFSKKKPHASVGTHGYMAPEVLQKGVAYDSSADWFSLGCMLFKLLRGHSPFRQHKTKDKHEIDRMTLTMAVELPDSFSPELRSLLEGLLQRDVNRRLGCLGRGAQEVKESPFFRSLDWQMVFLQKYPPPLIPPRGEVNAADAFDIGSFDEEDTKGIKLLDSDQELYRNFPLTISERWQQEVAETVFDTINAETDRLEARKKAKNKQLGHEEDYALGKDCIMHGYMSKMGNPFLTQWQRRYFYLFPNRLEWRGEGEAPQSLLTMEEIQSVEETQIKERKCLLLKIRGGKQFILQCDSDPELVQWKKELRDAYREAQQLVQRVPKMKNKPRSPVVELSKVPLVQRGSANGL
Briefly: luciferase-based (Kinase-Glo) biochemical kinase inhibition assay, hGRK-2. The note with it: for Ki: luciferase assay, casein substrate, 10 μM ATP, read-out: GRK-2 inhibition, Ki class. A digest of the protocol:
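Final conditions: 50 nM hGRK2, 20 μM casein, 10 μM ATP and 50 μM test compound in 4.5% DMSO, in HEPES pH 7.5 buffer with MgCl2, orthovanadate, CHAPS, BSA and DTT. Incubation ran 90-120 min at room temperature, targeting 20-30% ATP consumption. Remaining ATP was read by luminescence with diluted Kinase-Glo containing 0.01% trypan blue.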
Background: Kinase-Glo measures the ATP left after a reaction by luminescence.

The target of the next assay is T2, GRK-3 (Homo sapiens, UniProt P35626).
T2 sequence (P35626 1-688): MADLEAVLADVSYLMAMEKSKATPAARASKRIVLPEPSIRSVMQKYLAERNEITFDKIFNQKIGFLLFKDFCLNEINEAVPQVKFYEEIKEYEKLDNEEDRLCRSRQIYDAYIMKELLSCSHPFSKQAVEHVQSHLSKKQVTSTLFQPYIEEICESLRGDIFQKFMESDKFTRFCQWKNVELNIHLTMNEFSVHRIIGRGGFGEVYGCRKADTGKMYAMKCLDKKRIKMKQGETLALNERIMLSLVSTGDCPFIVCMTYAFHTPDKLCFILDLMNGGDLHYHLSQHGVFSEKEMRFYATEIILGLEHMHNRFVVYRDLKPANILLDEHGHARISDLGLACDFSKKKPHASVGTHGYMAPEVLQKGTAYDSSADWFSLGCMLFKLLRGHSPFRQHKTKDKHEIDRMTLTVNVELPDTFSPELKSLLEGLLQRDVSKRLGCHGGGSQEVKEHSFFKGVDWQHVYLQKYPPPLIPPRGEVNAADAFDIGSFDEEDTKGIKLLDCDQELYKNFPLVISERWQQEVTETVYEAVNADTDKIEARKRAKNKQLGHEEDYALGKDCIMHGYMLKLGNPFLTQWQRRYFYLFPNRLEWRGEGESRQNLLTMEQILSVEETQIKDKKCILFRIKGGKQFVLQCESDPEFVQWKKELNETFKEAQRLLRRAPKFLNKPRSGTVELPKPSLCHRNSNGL
Briefly: luciferase-based biochemical kinase inhibition assay, GRK-3. The note with it: same luciferase assay; read-out: GRK-3 inhibition, Ki class. The protocol: as §1, §2, §3

A further assay deals with mu-opioid receptor. The note with it: U2OS cells.
Assay [3] concerns Beta 2 Adrenergic receptor. The assay is described as follows: cAMP accumulation in HEK-293 cells with isoproterenol. The format is cell-based. To be noted: Beta 2 Adrenergic receptor overexpressed, fixed concentration of isoproterenol, increased concentrations of compound. The source says: This is consistent with the inhibition of GRK-2 resulting in less translocation of arrestin-GFP, less desensitization, and consequently more signaling by the B2AR. With more receptors available now on the surface of the cell, more cAMP is being generated in the presence of isoproterenol.

The target of the next assay is GRK-5 (Homo sapiens, UniProt P34947). Briefly: luciferase-based biochemical kinase inhibition assay, GRK-5. The note with it: same luciferase assay; read-out: GRK-5 inhibition, Ki class. The protocol:
The inhibition of G-protein-coupled receptor kinases including hGRK-2 was determined for the hydrazide compounds using a biochemical assay. […] The inhibition of GRK-3, GRK-5 and GRK-6 was also determined using the same assay for some of the hydrazide derivatives.
as §2, §3

Assay [4] is described as follows: Topical ocular composition of Example 103 administered to the eyes. To be noted: 0.50 wt % topical composition. It is filed as in vivo. The protocol: Examples of such assays are described in the following reference, incorporated herein: C. Liljebris, G. Selen, B. Resul, J. Sternschantz, and U. Hacksell, “Derivatives of 17-Phenyl-18,19,20-trinorprostaglandin F2α Isopropyl Ester: Potential Antiglaucoma Agents”, Journal of Medicinal Chemistry, Vol. 38 (2) 1995, pp. 289-304.
Topical pharmaceutical compositions for lowering intraocular pressure are prepared by conventional methods and formulated as follows: […]
A compound according to this invention is used as the hydrazide derivative. […]

Sequence of GRK-5 (P34947 whole entry, species assumed): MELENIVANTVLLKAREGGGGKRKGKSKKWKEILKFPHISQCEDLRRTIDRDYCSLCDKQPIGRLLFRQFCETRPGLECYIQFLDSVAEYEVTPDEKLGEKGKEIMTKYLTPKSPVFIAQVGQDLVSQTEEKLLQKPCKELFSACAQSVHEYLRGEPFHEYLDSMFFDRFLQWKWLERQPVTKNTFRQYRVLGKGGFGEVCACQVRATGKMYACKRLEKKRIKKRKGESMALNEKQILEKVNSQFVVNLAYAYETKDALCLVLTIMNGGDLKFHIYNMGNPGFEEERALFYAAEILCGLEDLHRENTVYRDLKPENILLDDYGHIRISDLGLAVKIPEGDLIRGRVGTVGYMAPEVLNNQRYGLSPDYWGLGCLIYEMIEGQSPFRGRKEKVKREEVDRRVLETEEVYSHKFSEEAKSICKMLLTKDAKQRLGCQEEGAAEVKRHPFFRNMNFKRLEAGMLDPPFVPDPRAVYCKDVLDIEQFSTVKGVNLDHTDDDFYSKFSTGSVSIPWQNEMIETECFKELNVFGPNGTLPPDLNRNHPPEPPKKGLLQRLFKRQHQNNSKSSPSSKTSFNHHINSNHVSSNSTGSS
Sequence of GRK-6 (P43250 whole entry, species assumed): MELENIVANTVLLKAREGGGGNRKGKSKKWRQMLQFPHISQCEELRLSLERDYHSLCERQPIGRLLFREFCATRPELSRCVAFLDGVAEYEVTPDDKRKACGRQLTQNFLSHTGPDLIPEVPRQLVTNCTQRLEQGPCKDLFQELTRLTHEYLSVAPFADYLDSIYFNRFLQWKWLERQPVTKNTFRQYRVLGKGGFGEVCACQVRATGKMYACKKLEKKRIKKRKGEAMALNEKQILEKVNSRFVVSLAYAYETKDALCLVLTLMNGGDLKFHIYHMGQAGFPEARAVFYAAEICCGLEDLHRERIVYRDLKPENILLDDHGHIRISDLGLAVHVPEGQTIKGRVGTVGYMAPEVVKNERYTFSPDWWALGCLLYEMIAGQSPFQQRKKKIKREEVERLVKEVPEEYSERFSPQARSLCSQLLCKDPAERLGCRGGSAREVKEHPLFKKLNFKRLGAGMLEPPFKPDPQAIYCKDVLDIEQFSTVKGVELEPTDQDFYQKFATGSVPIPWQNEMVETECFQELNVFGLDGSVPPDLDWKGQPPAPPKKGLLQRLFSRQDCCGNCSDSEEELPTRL

The IC50 is the concentration at which inhibition is half-maximal. As usually defined, the Ki is a measure of affinity in units of concentration, obtained from inhibition or displacement. Regarding “3-{[1-Pyridin-4-yl-meth-(E)-ylidene-hydrazinocarbonylmethyl]-amino}-benzamide [Example 41]”, the IC50 is greater than 10000 nM in assay [1] (60 minute pre-incubation, ISO-induced β-arrestin translocation, read-out: IC50 of the β1 arrestin (FIG. 2)); 4000 nM in [2] (60 minute pre-incubation, ISO-induced β-arrestin translocation, read-out: IC50 of the β2 arrestin (FIG. 1)); roughly 150 nM at mu-opioid receptor (read-out: IC50 for the μ-opioid receptor (FIG. 3), 60 minute pre-incubation, morphine-induced β-arrestin translocation). Besides, the “inhibition of arrestin-GFP translocation to the B1 WT” value in assay [1] is “modest inhibition”. Moreover, the Ki on GRK-6 was greater than 10000 nM; at hGRK-2, 10 to 100 nM; at GRK-3 it was 10 to 100 nM. Moreover, in assay [2] (isoproterenol), the “inhibition of arrestin-GFP translocation to the B2 WT (F-grains)” value is recorded as “stepwise reduction in translocation; also recorded: modest inhibition”. Moreover, the “inhibition of GRK-2, in words” value on hGRK-2 is on record as “very good inhibitor of GRK-2”. For the same molecule, the “inhibition of arrestin-GFP translocation to the μ opioid” value in the assay on mu-opioid receptor is given as “strong inhibition”. In addition, the “accumulation of cAMP” value in [3] is given as “increased accumulation of cAMP”.
Regarding `O=C(CNc1cccc(OCc2ccccc2)c1)N/N=C/c1c(Cl)cncc1Cl` [Example 9, (3-Benzyloxy-phenylamino)-acetic acid [1-(3,5-dichloro-pyridin-4-yl)-meth-(E)-ylidene]-hydrazide], the Ki at GRK-6 was greater than 10000 nM; at hGRK-2, 100 to 1000 nM; at GRK-5, 1000 to 10000 nM; at GRK-3, 100 to 1000 nM.
In the case of `CNC(=O)c1cccc(NCC(=O)N/N=C/c2c(Cl)cncc2Cl)c1` [Example 13, 3-{[1-(3,5-Dichloro-pyridin-4-yl)-meth-(E)-ylidene-hydrazinocarbonylmethyl]-amino}-N-methyl-benzamide], the Ki was greater than 10000 nM on GRK-6, 100 to 1000 nM at hGRK-2, 1000 to 10000 nM at GRK-5 and 100 to 1000 nM at GRK-3.
`O=C(CNc1cccc(Oc2ccccc2)c1)N/N=C/c1c(Cl)cncc1Cl` [Example 15, (3-Phenoxy-phenylamino)-acetic acid [1-(3,5-dichloro-pyridin-4-yl)-meth-(E)-ylidene]-hydrazide]: the Ki at GRK-6 was greater than 10000 nM; at hGRK-2, 100 to 1000 nM; at GRK-5, 1000 to 10000 nM; at GRK-3 it was 100 to 1000 nM.
In the case of `NC(=O)c1ccc(NCC(=O)N/N=C/c2c(Cl)cncc2Cl)cc1` [Example 28, 4-{[1-(3,5-Dichloro-pyridin-4-yl)-meth-(E)-ylidene-hydrazinocarbonylmethyl]-amino}-benzamide], in [4] (drop twice per day), the intraocular pressure result is “substantially decreases intraocular pressure”. For the same molecule, the Ki at hGRK-2 is greater than 10000 nM.
Turning to `COc1cccc(NCC(=O)N/N=C/c2ccncc2)c1` [Example 43, (3-Methoxy-phenylamino)-acetic acid [1-pyridin-4-yl-meth-(E)-ylidene]-hydrazide], the Ki was greater than 10000 nM at GRK-6, 10 to 100 nM at hGRK-2, 1000 to 10000 nM on GRK-5 and 10 to 100 nM on GRK-3.
On to `NC(=O)c1cccc(NCC(=O)N/N=C/c2ccncc2)c1` [Example 51, 3-{[1-Pyridin-4-yl-meth-(E)-ylidene-hydrazinocarbonylmethyl]-amino}-benzamide], for which the “hyperemia, redness and ocular irritation” value in [4] (drop as needed) was “substantially decreases hyperemia, redness and ocular irritation”. The Ki at hGRK-2 and on GRK-3 was 100 to 1000 nM throughout.
Take `O=C(CNc1cccc(Oc2ccccc2)c1)N/N=C/c1ccncc1` [Example 55, (3-Phenoxy-phenylamino)-acetic acid [1-pyridin-4-yl-meth-(E)-ylidene]-hydrazide]: the Ki is greater than 10000 nM at GRK-6, 100 to 1000 nM at hGRK-2, greater than 10000 nM at GRK-5 and 100 to 1000 nM on GRK-3.
Take `O=C(CNc1cccc(C(=O)NCCN2CCOCC2)c1)N/N=C/c1ccncc1` [Example 79, N-(2-Morpholin-4-yl-ethyl)-3-{[1-pyridin-4-yl-meth-(E)-ylidene-hydrazinocarbonylmethyl]-amino}-benzamide]: in [4] (drop 4 times per day), the intraocular pressure entry is listed as “substantially decreases intraocular pressure” and the neuroprotective agent result was “serves as a neuroprotective agent”. For the same molecule, on hGRK-2, the Ki is 100 to 1000 nM.
Take `Cc1ccc(Oc2cccc(NCC(=O)N/N=C/c3ccncc3)c2)cc1` [Example 85, (3-p-Tolyloxy-phenylamino)-acetic acid [1-pyridin-4-yl-meth-(E)-ylidene]-hydrazide]: in [4] (drop twice per day), the allergic symptoms result is listed as “substantially decreases allergic symptoms” and the dry eye syndrome entry is reported as “relieves dry eye syndrome”. Moreover, the Ki on hGRK-2 lay in the range of 10 to 100 nM.
Take `COc1cccc(NCC(=O)N/N=C(\C)c2ccncc2)c1` [Example 88, (3-Methoxy-phenylamino)-acetic acid [1-pyridin-4-yl-eth-(E)-ylidene]-hydrazide]: the Ki is greater than 10000 nM at GRK-6, 100 to 1000 nM on hGRK-2, 1000 to 10000 nM on GRK-5 and 100 to 1000 nM on GRK-3.
